Consider 9 molecules from ChEMBL document CHEMBL4364315, “Synthesis and evaluation of cytotoxic and Na+/K+-ATP-ase inhibitory activity of selected 5α-oleandrigenin derivatives” (Eur J Med Chem, 2019).

Calls of active or inactive are those of the source. The rule behind the calls is not given here. Where only a bound is given, the exact number is not on record here.

Test [1] concerns CCRF-CEM. As to the kind of experiment: Antiproliferative activity against human CEM cells assessed as reduction in cell viability after 72 hrs by resazurin dye based assay. It is filed as functional.
The next test deals with BJ. As to the kind of experiment: Cytotoxicity against human BJ cells assessed as reduction in cell viability after 72 hrs by resazurin dye based assay.
Another test has as its system HeLa. As to the kind of experiment: Antiproliferative activity against human HeLa cells assessed as reduction in cell viability after 72 hrs by resazurin dye based assay. The class given is functional.
Test [2] concerns the target T1, Sodium/potassium-transporting ATPase (Sus scrofa) (UniProt P05027+P05024+D2WKD8+D2WKD7+F1ST41). As to the kind of experiment: Inhibition of porcine kidney Na+/K+-ATPase assessed as residual activity at 50 uM preincubated for 2 mins followed by ATP addition and measured after 6 mins by bagin-sky assay relative to untreated control. It is filed as protein-complex assay.

In a further test the test system is MCF7. As to the kind of experiment: Antiproliferative activity against human MCF7 cells assessed as reduction in cell viability after 72 hrs by resazurin dye based assay. It is filed as functional. Conditions: MCF7, 72 h.
The target in test [3] is T1, Sodium/potassium-transporting ATPase (Sus scrofa). In words: Inhibition of porcine kidney Na+/K+-ATPase at 50 uM preincubated for 2 mins followed by ATP addition and measured after 6 mins by bagin-sky assay relative to Olean-drigenin. It is filed as protein-complex assay.
In test [4] the test system is CCRF-CEM. In words: Cell cycle arrest in human CEM cells assessed as increase in accumulation of cells in S phase after 24 hrs by RNase A/propidium iodide staining-based flow cytometric analysis. The class given is functional.
For test [5], the system named is CCRF-CEM. In words: Cell cycle arrest in human CEM cells assessed as decrease in cell population at G0/G1 phase at 15 uM after 24 hrs by RNase A/propidium iodide staining-based flow cytometric analysis. The class given is functional.
The test system of test [6] is CCRF-CEM. In words: Induction of apoptosis in human CEM cells assessed as PARP-1 cleavage at 15 uM after 24 hrs by Western blot analysis. It is filed as functional, cell-based.
For test [7], the system named is CCRF-CEM. As to the kind of experiment: Cell cycle arrest in human CEM cells assessed as accumulation of cells at sub-G1 phase at 15 uM after 24 hrs by RNase A/propidium iodide staining-based flow cytometric analysis. It is filed as functional.
Test [8] relates to CCRF-CEM. As to the kind of experiment: Induction of apoptosis in human CEM cells assessed as caspase-7 fragmentation at 15 uM after 24 hrs by Western blot analysis. The class given is functional, cell-based.
Test [9] relates to CCRF-CEM. In words: Induction of apoptosis in human CEM cells assessed as increase in relative activity of caspase-3/7 at 15 uM using AC-DEVD-AMC as substrate after 24 hrs by fluorescence based assay. It is filed as functional, cell-based.
Test [10] concerns CCRF-CEM. As to the kind of experiment: Cell cycle arrest in human CEM cells assessed as increase in accumulation of cells in G2/M phase after 24 hrs by RNase A/propidium iodide staining-based flow cytometric analysis. It is filed as functional.
In the next test the test system is Hep 3B2. As to the kind of experiment: Antiproliferative activity against human Hep3B cells assessed as reduction in cell viability after 72 hrs by resazurin dye based assay. The class given is functional.
The next test concerns A2780. In words: Antiproliferative activity against human A2780 cells assessed as reduction in cell viability after 72 hrs by resazurin dye based assay. It is filed as functional. Conditions: A2780, 72 h.
Test [11] has as its system CCRF-CEM. In words: Induction of apoptosis in human CEM cells assessed as decrease in Mcl-1 expression at 15 uM after 24 hrs by Western blot analysis. The class given is functional, cell-based.
The test system of test [12] is CCRF-CEM. As to the kind of experiment: Induction of apoptosis in human CEM cells assessed as increase in relative activity of caspase-3/7 at 15 uM using AC-DEVD-AMC as substrate after 24 hrs by fluorescence based assay relative to untreated control. It is filed as functional.
Test [13] deals with CCRF-CEM. As to the kind of experiment: Effect on cell cycle analysis in human CEM cells at 15 uM after 24 hrs by RNase A/propidium iodide staining-based flow cytometric analysis. It is filed as functional.
Test [14] relates to CCRF-CEM. In words: Cell cycle arrest in human CEM cells assessed as increase in cell population at G0/G1 phase at 15 uM after 24 hrs by RNase A/propidium iodide staining-based flow cytometric analysis. The class given is functional.
Test [15] deals with CCRF-CEM. As to the kind of experiment: Cell cycle arrest in human CEM cells assessed as reduction in cell population at S phase at 15 uM after 24 hrs by RNase A/propidium iodide staining-based flow cytometric analysis. The class given is functional.

On to `CO[C@H]1C[C@H](O[C@H]2CC[C@@]3(C)[C@H](CC[C@@H]4[C@@H]3CC[C@]3(C)[C@@H](C5=CC(=O)OC5)[C@@H](OC(C)=O)C[C@]43O)C2)O[C@@H](C)[C@@H]1O` [OLEANDRIN], for which the concentration for half-maximal inhibition (IC50) with CCRF-CEM [1] turned out to be 0.019 µM; with BJ, 0.026 µM; with HeLa, 0.062 µM; with MCF7 it was 0.033 µM. For the same molecule, the Activity in test [2] was 49%. This molecule gave an inhibition in test [3] of 25%.

Turning to `CO[C@H]1CC[C@@]2(C)[C@@H](CC[C@@H]3[C@@H]2CC[C@]2(C)[C@@H](C4=CC(=O)OC4)[C@@H](OC(C)=O)C[C@]32O)C1`, the Activity entry is “Dose-dependent effect” in the test with CCRF-CEM [4], 24% in test [2] and “Dose-dependent effect” in the test on CCRF-CEM [10]. Besides, the result in the test with CCRF-CEM [5], in the test with CCRF-CEM [6], in the test with CCRF-CEM [7], in the test on CCRF-CEM [8] and in the test on CCRF-CEM [9] was Active. Further, the IC50 with CCRF-CEM [1] worked out at 5.8 µM; in the test on BJ, 7.9 µM; in the test with HeLa, 14.8 µM; in the test on MCF7, 21.1 µM; with Hep 3B2, 7.7 µM; with A2780 it was 5.9 µM.

`CO[C@H]1CC[C@@]2(C)[C@@H](CC[C@@H]3[C@@H]2CC[C@]2(C)[C@@H](C4=CC(=O)OC4)[C@@H](OC(C)=O)[C@@H]4O[C@@]342)C1`: the half-maximal inhibitory concentration (IC50) with CCRF-CEM [1] was 1.3 µM; in the test with BJ it was 5.7 µM; in the test with HeLa it was 17.5 µM; in the test on MCF7, 4.4 µM; in the test with Hep 3B2, greater than 50 µM; with A2780, 4.9 µM. Also, the result with CCRF-CEM [6], in the test with CCRF-CEM [7], in the test on CCRF-CEM [8] and in the test with CCRF-CEM [11] was Active. Moreover, the Activity in test [2] was 104%. For the same molecule, the “fold change (FC)” value with CCRF-CEM [12] is listed as “<=19”.

For `CO[C@H]1CC[C@@]2(C)[C@@H](CC[C@@H]3[C@@H]2CC[C@]2(C)[C@@H](C4=CC(=O)OC4)[C@@H](OC(C)=O)[C@H]4O[C@]342)C1`, the half-maximal inhibitory concentration (IC50) with CCRF-CEM [1] was found to be 2.5 µM; in the test with BJ, 4.5 µM; in the test on HeLa, 11.3 µM; in the test on MCF7, 7.6 µM; in the test with A2780, 1.7 µM. Moreover, the outcome in the test with CCRF-CEM [6], in the test with CCRF-CEM [7], with CCRF-CEM [8], in the test on CCRF-CEM [9] and with CCRF-CEM [11] was Active. The Activity in test [2] was 25%.

For the molecule `CC(=O)O[C@H]1C[C@]2(O)[C@@H]3CC[C@@H]4C[C@@H](O)CC[C@]4(C)[C@H]3CC[C@]2(C)[C@H]1C1=CC(=O)OC1`, the half-maximal inhibitory concentration (IC50) with CCRF-CEM [1] is 0.2 µM; in the test on BJ, 0.1 µM; with HeLa, 0.2 µM; in the test on MCF7, 0.8 µM. Besides, in [2], the Activity was 75%.

With `CO[C@H]1CC[C@@]2(C)[C@@H](CC[C@@H]3[C@@H]2CC[C@]2(C)[C@@H](c4ccoc4)[C@@H](OC(C)=O)C[C@]32O)C1`, the result in the test with CCRF-CEM [13] was inactive. In addition, the IC50 with CCRF-CEM [1], in the test with BJ, with HeLa, with MCF7, with Hep 3B2 and in the test on A2780 was greater than 50 µM in each case. Further, the Activity in [2] came to 75%.

As for `CO[C@H]1CC[C@@]2(C)[C@@H](CC[C@@H]3[C@@H]2CC[C@]2(C)[C@@H](C4=CC(=O)OC4)[C@@H](O)C[C@]32O)C1`, the 50% inhibitory concentration (IC50) in the test on CCRF-CEM [1] is 14.1 µM; with BJ it was greater than 50 µM; with HeLa, greater than 50 µM; in the test with MCF7, greater than 50 µM; in the test with A2780, greater than 50 µM. Moreover, the result with CCRF-CEM [6], in the test with CCRF-CEM [7] and in the test with CCRF-CEM [8] was Active. In addition, the outcome in the test on CCRF-CEM [9] was inactive. Moreover, the Activity in [2] amounted to 25%.

Regarding `CO[C@H]1CC[C@@]2(C)[C@@H](CC[C@@H]3[C@@H]2CC[C@]2(C)[C@@H](c4ccoc4)[C@@H](O)[C@H]4O[C@]342)C1`, the 50% inhibitory concentration (IC50) was 36.4 µM with CCRF-CEM [1]; greater than 50 µM in the test on BJ; 11.9 µM with HeLa; 50 µM in the test on MCF7; 27.2 µM with Hep 3B2; 18.4 µM in the test with A2780. The Activity in test [2] worked out at 101%.

As for `CO[C@H]1CC[C@@]2(C)[C@@H](CC[C@@H]3[C@@H]2CC[C@]2(C)[C@@H](C4=CC(=O)OC4)[C@@H](O)[C@H]4O[C@]342)C1`, the concentration for half-maximal inhibition (IC50) in the test on CCRF-CEM [1], in the test on BJ, in the test on HeLa, in the test with MCF7 and in the test on A2780 was greater than 50 µM throughout. The result with CCRF-CEM [14] and in the test on CCRF-CEM [15] was Active. In addition, in test [2], the Activity worked out at 75%.
